This note sets out measurements from patent publication US8642770B2, “Indole derivative” (Takeda Pharmaceutical Company Limited, priority 2010, dated 2014).

SMILES strings stand for the structures.

Turning to `Cc1c(CN[C@H]2CC[C@](C)(O)CC2)n(C)c2c(C)c(NC(=O)c3ccc(OC[C@@H]4CCCO4)cc3)ccc12` [Example 109, N-(2-{[(trans-4-hydroxy-4-methylcyclohexyl)amino]methyl}-1,3,7-trimethyl-1H-indol-6-yl)-4-[(2S)-tetrahydrofuran-2-ylmethoxy]benzamide], the melting point lay within 183 to 184 °C.
The result for `Cc1c(NC(=O)c2ccc(OCC3CC3)cc2)ccc2cc(CN3CCC(C)(O)CC3)n(C)c12` [Example 80, 4-(cyclopropylmethoxy)-N-{2-[(4-hydroxy-4-methylpiperidin-1-yl)methyl]-1,7-dimethyl-1H-indol-6-yl}benzamide] reads 152 to 155 °C; that for `Cc1c(CNCC(C)C)n(C)c2c(C)c(NC(=O)c3ccc(OC[C@@H]4CCCO4)cc3)ccc12` [Example 106, N-(2-{[(2-methylpropyl)amino]methyl}-1,3,7-trimethyl-1H-indol-6-yl)-4-[(2S)-tetrahydrofuran-2-ylmethoxy]benzamide], 171 to 172 °C.
The result for `Cn1c(CN[C@H]2CC[C@H](O)CC2)cc2cc(NC(=O)c3ccc(OCC4CC4)cc3)ccc21` [Example 8, 4-(cyclopropylmethoxy)-N-(2-{[(trans-4-hydroxycyclohexyl)amino]methyl}-1-methyl-1H-indol-5-yl)benzamide] reads 196 to 197 °C; that for `Cc1c(CNCC(C)(C)O)n(C)c2c(C)c(NC(=O)c3ccc(OC[C@@H]4CCCO4)cc3F)ccc12` [Example 111, 2-fluoro-N-(2-{[(2-hydroxy-2-methylpropyl)amino]methyl}-1,3,7-trimethyl-1H-indol-6-yl)-4-[(2S)-tetrahydrofuran-2-ylmethoxy]benzamide], 131 to 132 °C; that for `O=C(Nc1ccc2[nH]c(CNCC3CCOCC3)cc2c1)c1ccc(OCC2CC2)cc1` [Example 3, 4-(cyclopropylmethoxy)-N-(2-{[(tetrahydro-2H-pyran-4-ylmethyl)amino]methyl}-1H-indol-5-yl)benzamide], 160 °C.
With `Cn1c(CNCC(C)(C)C)cc2cc(NC(=O)c3ccc(OCC4CCOC4)cc3)ccc21` (stereo not shown) [Example 22, N-(2-{[(2,2-dimethylpropyl)amino]methyl}-1-methyl-1H-indol-5-yl)-4-(tetrahydrofuran-3-ylmethoxy)benzamide], the melting point lay within 162 to 163 °C.
The result for `Cc1c(CN[C@H]2CC[C@](C)(O)CC2)n(C)c2c(F)c(NC(=O)c3ccc(OC[C@@H]4CCCO4)cc3)ccc12` [Example 112, N-(7-fluoro-2-{[(trans-4-hydroxy-4-methylcyclohexyl)amino]methyl}-1,3-dimethyl-1H-indol-6-yl)-4-[(2S)-tetrahydrofuran-2-ylmethoxy]benzamide] reads 122 to 124 °C; that for `Cn1c(CNCC2(C)COC2)cc2cc(NC(=O)c3ccc(OCC4CC4)cc3)ccc21` [Example 4, 4-(cyclopropylmethoxy)-N-[1-methyl-2-({[(3-methyloxetan-3-yl)methyl]amino}methyl)-1H-indol-5-yl]benzamide], 154 to 155 °C; that for `Cn1c(CNCC2CCOCC2)cc2cc(NC(=O)c3ccc(OCC4CCOC4)cc3)ccc21` (stereo not shown) [Example 23, N-(1-methyl-2-{[(tetrahydro-2H-pyran-4-ylmethyl)amino]methyl}-1H-indol-5-yl)-4-(tetrahydrofuran-3-ylmethoxy)benzamide], 153 to 154 °C.
To `Cc1c(CN[C@H]2CC[C@](C)(O)CC2)n(C)c2ccc(NC(=O)c3ccc(OC[C@@H]4CCCO4)cc3)cc12` [Example 38, N-(2-{[(trans-4-hydroxy-4-methylcyclohexyl)amino]methyl}-1,3-dimethyl-1H-indol-5-yl)-4-[(2S)-tetrahydrofuran-2-ylmethoxy]benzamide] belongs 172 to 173 °C; to `Cn1c(CNCC(C)(C)C)cc2cc(NC(=O)c3ccc(C#CC4(O)CCC4)cc3)ccc21` [Example 30, N-(2-{[(2,2-dimethylpropyl)amino]methyl}-1-methyl-1H-indol-5-yl)-4-[(1-hydroxycyclobutyl)ethynyl]benzamide], 160 to 161 °C; to `Cc1c(NC(=O)c2ccc(OC[C@@H]3CCCO3)cc2)ccc2[nH]c(CNCC3CCOCC3)cc12` [Example 47, N-(4-methyl-2-{[(tetrahydro-2H-pyran-4-ylmethyl)amino]methyl}-1H-indol-5-yl)-4-[(2S)-tetrahydrofuran-2-ylmethoxy]benzamide], 166 to 167 °C.
The result for `CC1(CNCc2cc3cc(NC(=O)c4ccc(OCC5CC5)cc4)ccc3[nH]2)COC1` [Example 1, 4-(cyclopropylmethoxy)-N-[2-({[(3-methyloxetan-3-yl)methyl]amino}methyl)-1H-indol-5-yl]benzamide] reads 166 to 167 °C.
For `Cc1c(NC(=O)c2ccc(OCC3CC3)cc2)ccc2[nH]c(CNCC3CCOCC3)cc12` [Example 43, 4-(cyclopropylmethoxy)-N-(4-methyl-2-{[(tetrahydro-2H-pyran-4-ylmethyl)amino]methyl}-1H-indol-5-yl)benzamide], the melting point was 181 to 182 °C.
The result for `Cc1c(NC(=O)c2ccc(OCC3CC3)cc2)ccc2[nH]c(CNC3CCCC3)cc12` [Example 45, N-{2-[(cyclopentylamino)methyl]-4-methyl-1H-indol-5-yl}-4-(cyclopropylmethoxy)benzamide] reads 207 to 208 °C; that for `Cc1c(NC(=O)c2ccc(C#CC3(O)CCC3)cc2)ccc2cc(CNCC(C)C)n(C)c12` [Example 92, 4-[(1-hydroxycyclobutyl)ethynyl]-N-(2-{[(2-methylpropyl)amino]methyl}-1,7-dimethyl-1H-indol-6-yl)benzamide], 222 to 223 °C; that for `Cc1c(NC(=O)c2ccc(OC[C@@H]3CCCO3)cc2F)ccc2cc(CNCC(C)(C)O)[nH]c12` [Example 76, 2-fluoro-N-(2-{[(2-hydroxy-2-methylpropyl)amino]methyl}-7-methyl-1H-indol-6-yl)-4-[(2S)-tetrahydrofuran-2-ylmethoxy]benzamide], 148 to 149 °C.
To `Cc1c(NC(=O)c2ccc(OCC3CC3)cc2)ccc2cc(CNCC(C)(C)C)[nH]c12` [Example 65, 4-(cyclopropylmethoxy)-N-(2-{[(2,2-dimethylpropyl)amino]methyl}-7-methyl-1H-indol-6-yl)benzamide] belongs 199 °C; to `Cc1c(CNCC(C)(C)O)n(C)c2c(C)c(NC(=O)c3ccc(OC[C@@H]4CCCO4)cc3)ccc12` [Example 108, N-(2-{[(2-hydroxy-2-methylpropyl)amino]methyl}-1,3,7-trimethyl-1H-indol-6-yl)-4-[(2S)-tetrahydrofuran-2-ylmethoxy]benzamide], 186 to 188 °C; to `Cc1c(NC(=O)c2ccc(OC[C@@H]3CCCO3)cc2)ccc2c1cc(CNC1CCCC1)n2C` [Example 56, N-{2-[(cyclopentylamino)methyl]-1,4-dimethyl-1H-indol-5-yl}-4-[(2S)-tetrahydrofuran-2-ylmethoxy]benzamide], 189 °C.
The result for `Cc1c(CNCC(C)(C)C)[nH]c2c(C)c(NC(=O)c3ccc(OC[C@@H]4CCCO4)cc3)ccc12` [Example 98, N-(2-{[(2,2-dimethylpropyl)amino]methyl}-3,7-dimethyl-1H-indol-6-yl)-4-[(2S)-tetrahydrofuran-2-ylmethoxy]benzamide] reads 178 to 179 °C.
